Measured values: US20240376097A1, “BCL-2 Inhibitor” (BeiGene Ltd., priority 2020, published 2024)
pIC50: −log10 of the molar value. Read-outs that look alike come from different tables or passages of the source.

How the values were obtained:
[1] = tested on: BCL-2 G101V knock-in cell line H96 (derive from RS4;11); assay: Bcl 2-G101V Knock-In RS4;11 Cell Proliferation Assay; type: cell-based; settings: Homo sapiens, RS4;11 Bcl-2 G101V knock-in clone H96, 48 hrs, CellTiter-GLO, read-out: Cellular proliferation assay (IC50, nM) RS4
Summary of the method: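 CellTiter-Glo luminescence after 48 h, 37 °C compound treatment (10 concentrations, maximum 1 μM or 10 μM) gave mean IC50 values. Cells were 50,000 per well of H96, a BCL2-G101V knock-in single clone derived from RS4;11 by Cas9 editing.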

[2] = tested on: RS4;11 (BCL-2 dependent acute lymphoblastic leukemia cell line); assay: RS4;11 Cell Proliferation Assay; type: cell-based; settings: Homo sapiens, read-out: Cellular proliferation assay (IC50, nM) RS4
Summary of the method: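 Viability measured via CellTiter-Glo luminescence after a 48 h, 37 °C exposure to compounds (10 points, highest 1 μM). Seeding was 50,000 RS4;11 cells per well in 10% FBS RPMI-1640; IC50 given as mean.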

[3] = Metabolic Stability Study, liver microsome incubation (mouse); type: in vitro ADME; settings: mouse liver microsomes 0.5 mg/mL, 1 μM compound, NADPH; for microsomal CLint at 1 μM: read-out: CLint (μL × min^−1 × mg^−1) mouse; for half-life at 1 μM: NA^# = very stable, beyond the detection limits, read-out: T1/2 (min) mouse
Experimental: (§1) Biological Example: Metabolic Stability Study
(§2) The metabolic stability of some compounds was evaluated by using the liver microsome incubation system in vitro. Briefly, the test compounds at 1 μM, were incubated with 0.5 mg/mL liver microsomes from different species (human, dog, rat and mouse) with an NADPH regenerating system at 37° C. Samples were quenched at three time points (0, 30, 60 min) with organic solvent containing internal standards, and the supernatant was analyzed for parent loss via LC-MS/MS. Midazolam was used as the positive control to validate the incubation system.
(§3) where Cprotein is the microsomal protein concentration in the incubation system.
(§4) The value of CLint and T1/2 of Example F132b in WO2019210818 and representative compounds of the disclosure were determined, and the results are shown in Table 5.

[4] = Metabolic Stability Study, liver microsome incubation (human); type: in vitro ADME; settings: human liver microsomes 0.5 mg/mL, 1 μM compound, NADPH; for microsomal CLint at 1 μM: read-out: CLint (μL × min^−1 × mg^−1) Human; for half-life at 1 μM: NA^# = very stable, beyond the detection limits, read-out: T1/2 (min) Human
Experimental: as §1, §2, §3, §4

[5] = target: recombinant human Bcl-2 D103Y protein (Homo sapiens (Human), UniProt P10415, D103Y); assay: Bcl-2-D103Y Biochemical Assay (TR-FRET); type: binding; settings: for pIC50: TR-FRET, FITC labeled Bak peptide; for Ratio of Bcl-2 D103Y/Bcl-2 WT: ratio of IC50
Summary of the method: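 Compounds titrated against the Bcl-2 D103Y–ligand interaction; inhibition derived from the TR-FRET emission ratio 490 nm/520 nm after 337 nm excitation. Four-parameter logistic fitting gave IC50.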

[6] = target: Recombinant human Bcl-2 protein (Homo sapiens (Human), UniProt P10415); assay: Bcl-2 TR-FRET Assay; type: binding
Summary of the method: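 In pH 7.5 phosphate buffer containing NaCl, EDTA, Tween-20 and BSA, 0.05 nM Bcl-2 saw serially diluted compound for 0.5 h before 0.5 nM FITC-Bak peptide was added. Signal ratio at 520/490 nm after 1 h yielded IC50.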

[7] = target: recombinant human Bcl-2-G101V protein (Homo sapiens (Human), UniProt P10415, G101V); assay: Bcl-2-G101V TR-FRET Assay; type: binding; settings: Bcl-2 G101V mutant, TR-FRET; read-out: Biochemical assay (IC50, nM) Bcl-2 G101V
Summary of the method: (§5)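 TR-FRET read at excitation 337 nm with emission at 490 nm and 520 nm. Inhibition of Bcl-2-G101V binding to its ligand across increasing compound concentrations was calculated from the 490/520 nm fluorescence ratio, and IC50 values came from four-parameter logistic fits.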

[8] = tested on: recombinant human Bcl-2-G101V protein; assay: Bcl-2-G101V TR-FRET Assay; type: binding; settings: ratio of biochemical IC50 Bcl-2 G101V / Bcl-2 WT
Summary of the method: as §5

[9] = wild type Bcl-2, unit inferred, read-out: Bcl-2 WT
[10] = Bcl-2 wild type, TR-FRET, read-out: Biochemical assay (IC50, nM) Bcl-2 WT

| Structure (SMILES) | IC50 ([1]; RS4-11, 48 h) [nM] | IC50 ([2]; RS4;11 cells) [nM] | microsomal CLint at 1 μM [3] [µL/min/mg] | microsomal CLint at 1 μM [4] [µL/min/mg] | half-life at 1 μM [3] [min] | half-life at 1 μM [4] [min] | pIC50 [5] | Ratio of Bcl-2 D103Y/Bcl-2 WT [5] | IC50 [6, 9] [nM] | IC50 [7] [nM] | Ratio of Bcl-2 G101V/WT [8] | IC50 [1] [nM] | IC50 ([2]; RS4-11, RS4;11 cells) [nM] | IC50 [6, 10] [nM] |
| --- | --- | --- | --- | --- | --- | --- | --- | --- | --- | --- | --- | --- | --- | --- |
| CC(C)c1ccccc1[C@@H]1CN(Cc2ccc(OC3CC3)c(OC3CC3)c2)CCN1C1CC2(C1)CN(c1ccc(C(=O)NS(=O)(=O)c3ccc(NC[C@H]4CC[C@](C)(O)CC4)c([N+](=O)[O-])c3)c(Oc3cnc4[nH]cc(F)c4c3)c1)C2 [Example 363, 4-(6-((R)-4-(3,4-dicyclopropoxybenzyl)-2-(2-isopropylphenyl)piperazin-1-yl)-2-azaspiro[3.3]heptan-2-yl)-2-((3-fluoro-1H-pyrrolo[2,3-b]pyridin-5-yl)oxy)-N-((4-((((1r,4r)-4-hydroxy-4-methylcyclohexyl)methyl)amino)-3-nitrophenyl)sulfonyl) benzamide] | 0.14 | 0.11 | < 1 | < 1 |  |  |  |  |  |  |  |  |  |  |
| CC(C)c1ccccc1C1CC(Cc2ccccc2)CCN1C1CC2(CCN(c3ccc(C(=O)NS(=O)(=O)c4ccc(NC[C@H]5CC[C@](C)(O)CC5)c([N+](=O)[O-])c4)c(Oc4cnc5[nH]ccc5c4)c3)CC2)C1 (stereo partly drawn) [Example 67, 2-((1H-pyrrolo[2,3-b]pyridin-5-yl)oxy)-4-(2-(4-benzyl-2-(2-isopropylphenyl)piperidin-1-yl)-7-azaspiro[3.5]nonan-7-yl)-N-((4-((((1r,4r)-4-hydroxy-4-methylcyclohexyl)methyl)amino)-3-nitrophenyl)sulfonyl)benzamide] |  |  | 5.1 | 4.5 | 272 | 309 |  |  |  |  |  |  |  |  |
| COc1ccc(CN2CCN(C3CC4(CCN(c5ccc(C(=O)NS(=O)(=O)c6ccc(NC[C@H]7COCCO7)c([N+](=O)[O-])c6)c(Oc6cnc7[nH]ccc7c6)c5)CC4)C3)[C@H](c3ccccc3C(C)C)C2)cc1 (single isomer, unassigned) [Example 33, N-((4-((((S)-1,4-dioxan-2-yl)methyl)amino)-3-nitrophenyl)sulfonyl)-2-((1H-pyrrolo[2,3-b]pyridin-5-yl)oxy)-4-(2-((R or S)-2-(2-isopropylphenyl)-4-(4-methoxybenzyl)piperazin-1-yl)-7-azaspiro[3.5]nonan-7-yl)benzamide] |  |  | 5.9 | 0.8 | 233 | 1820 | 10.03 | 2.5 | 0.038 |  |  |  |  |  |
| CC(C)c1ccccc1C1CN(Cc2ccc(N(C)C)cc2)CCN1C1CC2(CCN(c3ccc(C(=O)NS(=O)(=O)c4ccc(NC[C@H]5CC[C@](C)(O)CC5)c([N+](=O)[O-])c4)c(Oc4cnc5[nH]ccc5c4)c3)CC2)C1 (stereo partly drawn) [Example 114, 2-((1H-pyrrolo[2,3-b]pyridin-5-yl)oxy)-4-(2-(4-(4-(dimethylamino)benzyl)-2-(2-isopropylphenyl)piperazin-1-yl)-7-azaspiro[3.5]nonan-7-yl)-N-((4-((((1r,4r)-4-hydroxy-4-methylcyclohexyl)methyl)amino)-3-nitrophenyl)sulfonyl)benzamide] |  |  |  |  |  |  | 9.40 | 3.4 | 0.12 | 0.83 | 6.9 | 3.65 | 0.6 | 0.12 |
| COc1cc(CN2CCN(C3CC4(C3)CN(c3ccc(C(=O)NS(=O)(=O)c5ccc(NCC6CCOCC6)c([N+](=O)[O-])c5)c(Oc5cnc6[nH]ccc6c5)c3)C4)[C@H](c3ccccc3C(C)C)C2)ccc1C1CC1 [Example 319] |  |  |  |  |  |  | 9.38 | 1.7 | 0.25 | 0.85 | 3.3 | 0.84 | 0.24 | 0.25 |
| COc1cc(CN2CCN(C3CC4(CCN(c5ccc(C(=O)NS(=O)(=O)c6ccc(NC[C@H]7CC[C@](C)(O)CC7)c([N+](=O)[O-])c6)c(Oc6cnc7[nH]ccc7c6)c5)CC4)C3)C(c3ccccc3C(C)C)C2)cc(C)c1OC (stereo partly drawn) [Example 158] |  |  |  |  |  |  | 9.43 | 1.3 | 0.27 | 0.75 | 2.8 | 1.52 | 0.322 | 0.27 |
| COc1ccc(CN2CCN(C3CC4(CCN(c5ccc(C(=O)NS(=O)(=O)c6ccc(NC[C@H]7CC[C@](C)(O)CC7)c([N+](=O)[O-])c6)c(Oc6cnc7[nH]ccc7c6)c5)CC4)C3)C(c3ccccc3C(C)C)C2)cc1F (stereo partly drawn) [Example 134, 2-((1H-pyrrolo[2,3-b]pyridin-5-yl)oxy)-4-(2-(4-(3-fluoro-4-methoxybenzyl)-2-(2-isopropylphenyl)piperazin-1-yl)-7-azaspiro[3.5]nonan-7-yl)-N-((4-((((1r,4r)-4-hydroxy-4-methylcyclohexyl)methyl)amino)-3-nitrophenyl)sulfonyl)benzamide] |  |  |  |  |  |  | 9.17 | 1.9 | 0.35 | 1.3 | 3.8 | 3.1 | 0.4 | 0.35 |
| COc1cc(CN2CCN(C3CC4(CCN(c5ccc(C(=O)NS(=O)(=O)c6ccc(NC[C@H]7CC[C@](C)(O)CC7)c([N+](=O)[O-])c6)c(Oc6cnc7[nH]cc(F)c7c6)c5)CC4)C3)[C@H](c3ccccc3C(C)C)C2)ccc1C [Example 273, 2-((3-fluoro-1H-pyrrolo[2,3-b]pyridin-5-yl)oxy)-N-((4-((((1r,4r)-4-hydroxy-4-methylcyclohexyl)methyl)amino)-3-nitrophenyl)sulfonyl)-4-(2-((R)-2-(2-isopropylphenyl)-4-(3-methoxy-4-methylbenzyl)piperazin-1-yl)-7-azaspiro[3.5]nonan-7-yl)benzamide] |  |  |  |  |  |  | 9.09 | 1.2 | 0.7 | 1.9 | 2.6 | 0.46 | 0.25 | 0.7 |
| [2H]C([2H])([2H])Oc1ccc(CN2CCN(C3CC4(C3)CN(c3ccc(C(=O)NS(=O)(=O)c5ccc(NC[C@H]6CC[C@](C)(O)CC6)c([N+](=O)[O-])c5)c(Oc5cnc6[nH]ccc6c5)c3)C4)[C@H](c3ccccc3C(C)C)C2)cc1OC([2H])([2H])[2H] [Example 243, 2-((1H-pyrrolo[2,3-b]pyridin-5-yl)oxy)-4-(6-((R)-4-(3,4-bis(methoxy-d3)benzyl)-2-(2-isopropylphenyl)piperazin-1-yl)-2-azaspiro[3.3]heptan-2-yl)-N-((4-((((1r,4r)-4-hydroxy-4-methylcyclohexyl)methyl)amino)-3-nitrophenyl)sulfonyl)benzamide] |  |  |  |  |  |  | 10.39 | 1 | 0.041 | 0.086 | 2.1 | 0.22 | 0.12 | 0.04 |
